Results on three compounds are retold here after patent EP2545917B1, “NOVEL EP4 AGONIST” (Kaken Pharmaceutical Co., Ltd., priority 2010, dated 2011).

The structures appear in SMILES notation. Bounds are passed on as bounds.

One data set deals with T1, Human EP1 (Homo sapiens, UniProt P34995).
T1 construct: expressed in transfected cells; host or cells: COS-7
T1 sequence (P34995 1-402): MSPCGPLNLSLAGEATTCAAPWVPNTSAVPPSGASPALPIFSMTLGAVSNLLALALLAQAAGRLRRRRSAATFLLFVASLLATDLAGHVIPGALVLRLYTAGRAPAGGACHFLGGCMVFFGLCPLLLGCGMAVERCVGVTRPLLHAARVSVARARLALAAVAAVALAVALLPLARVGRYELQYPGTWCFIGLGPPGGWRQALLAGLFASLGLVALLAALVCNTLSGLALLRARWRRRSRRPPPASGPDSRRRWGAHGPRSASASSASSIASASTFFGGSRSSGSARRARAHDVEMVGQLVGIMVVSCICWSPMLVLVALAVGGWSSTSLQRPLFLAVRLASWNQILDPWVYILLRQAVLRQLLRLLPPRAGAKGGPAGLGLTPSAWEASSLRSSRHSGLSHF
Put plainly: Receptor affinity, tritium-labeled PGE2 binding to membranes of transfected COS-7 cells. Here is the method:
(§1) PG receptor affinity of compound F and compound J of the present invention was evaluated. Compound F used was one synthesized in Example 9, and compound J was prepared by separating and purifying the compound synthesized in Example 14 with a column (the same preparations were used in the following Examples). COS-7 cells were transfected with the genes of mouse EP4, human EP1-4 or human IP to overexpress the receptor and then the cell membranes were collected. As a labeled ligand, tritium-labeled PGE2 was used for EPs; tritium-labeled iloprost, for IP. The dissociation constant Kd value was obtained and inhibition constant Ki value of each test compound was determined in a conventional method. As a reference control, PGE2 was used for EPs; beraprost sodium (BPS), for IP.

The next data set deals with IL-2. As to the kind of experiment: Suppressive effect on cytokine production, CD4 positive T cells stimulated with anti-CD3 and anti-CD28 antibody, ELISA. To be noted: human CD4 positive T cells, anti-CD3/anti-CD28, 24 hr; geometric mean of three volunteers. It is filed as cell-based. The protocol: (§2) Blood was collected from 3 healthy volunteers, and CD4 positive T cells were prepared. […] In both cases, the test compound was added 30 min before stimulation.

The nature of data set [1]: Plasma pharmacokinetics after intravenous administration to rats. Format: in vivo. To be noted: male, rat. The protocol:
To verify the in vivo metabolic stability of the compound of the present invention, plasma pharmacokinetics was evaluated after intravenous administration to rats. Male rats (6 weeks old, body weight 160 - 180 g) were acclimated for 1 week, and the animals diagnosed healthy were used. A mixture of compound F and compound J of the present invention described in Table 1 (F:J = 52:41), and a mixture of carboxylate forms of compound F and compound J (F:J = 54:34), and compound F (synthesized in Example 9) were dissolved in a small amount of ethanol and physiological saline was added to prepare test compound solutions. The test compound solutions were instantaneously administered intravenously at 1 mL/kg from the femoral vein of non-fasting rats under light ether anesthesia. Venous blood was drawn from the tail vein 5, 15, 30, 45, 60, 90 and 120 min after administration. The blood was mixed with heparin and centrifuged (3000 rpm, 4°C, 15 min) to obtain plasma. The plasma compound concentration was determined by the internal standard method using LC-MS/MS. The determination range by this method was from 0.1 to 100 ng/mL. The compound concentrations obtained from each rat were analyzed in a model-independent way using a pharmacokinetics analysis software WinNonlin (ver.3.3), and average ± standard deviation of 3 animals for each group was obtained.

The target in another data set is T2, Human IP (Homo sapiens, UniProt P43119).
T2 construct: expressed in transfected cells; host or cells: COS-7
Put plainly: Receptor affinity, tritium-labeled iloprost binding to membranes of transfected COS-7 cells. The note with it: COS-7 cell membranes. Here is the method: as §1

Data set [2] is described as follows: In vitro metabolic stability: β-oxidation reaction in rat liver mitochondria fraction. It is filed as in vitro ADME. To be noted: parent compound after NADPH-independent β-oxidation reaction, 37°C, 30 min, tested as isomer mixtures, average ± SD of 3 experiments. The protocol: A mixture of the compound F and compound J of the present invention described in Table 1 (F:J = 52:41, synthesized in Example 14), and a mixture of compounds wherein the tetrazole groups at C-1 of compound F and compound J are respectively substituted by carboxylic acid (referred to as carboxylate form, F:J = 54:34, synthesized in Example 15) were tested.
First, a mitochondria fraction was prepared from the rat liver according to the following Reference A. Then, in reference to the method of […] et al. described in the following References B and C, an NADPH-independent β oxidation reaction was studied. The reaction was carried out at 37°C for 30 min, and stopped with a methanol solution containing a suitable internal standard substance. Each compound was quantified by the internal standard method using a high performance liquid chromatography mass spectrometry apparatus (LC-MS/MS). The compound residual ratio after metabolic reaction of compounds F, J and each carboxylate form thereof in rat mitochondria fraction is shown in the following Table 2 in average ± standard deviation of 3 experiments. Table 2 Residual Ratio of Parent Compound after β-Oxidation Reaction

Data set [3] concerns the target T3, Human EP4 (Homo sapiens, UniProt P35408).
T3 construct: expressed in transfected cells; host or cells: COS-7
Put plainly: EP4 agonist activity, CRE-LUC reporter gene in transfected COS-7 cells. It is filed as cell-based. The protocol:
In brief, human EP4 gene and CRE-LUC reporter gene were transfected into COS-7 cells. The cells were treated with a test compound one day later, and incubated for 3 hr. The cells were washed, a luminescence substrate was added, and the luminescence intensity was measured for the agonist activity.

In the next data set the test system is TNF-α. As to the kind of experiment: Suppressive effect on cytokine production, CD4 positive T cells stimulated with anti-CD3 and anti-CD28 antibody, ELISA. It is filed as cell-based. The note with it: human CD4 positive T cells, anti-CD3/anti-CD28, 24 hr; geometric mean of three volunteers. Here is the method:
as §2

In a further data set the test system is IP-10. Put plainly: Suppressive effect on cytokine production, whole blood stimulated with lipopolysaccharide, ELISA. To be noted: human whole blood, indometacin, 48 hr, geometric mean of three volunteers. It is filed as cell-based.
Data set [4] concerns the target T3, Human EP4. Put plainly: Receptor affinity, tritium-labeled PGE2 binding to membranes of transfected COS-7 cells. The protocol:
(§3) COS-7 cells were transfected with the genes of mouse EP4, human EP1-4 or human IP to overexpress the receptor and then the cell membranes were collected. […] The dissociation constant Kd value was obtained and inhibition constant Ki value of each test compound was determined in a conventional method.

For a further data set, the target named is T4, Human EP3 (Homo sapiens, UniProt P43115).
T4 construct: expressed in transfected cells; host or cells: COS-7
T4 sequence (P43115 1-390): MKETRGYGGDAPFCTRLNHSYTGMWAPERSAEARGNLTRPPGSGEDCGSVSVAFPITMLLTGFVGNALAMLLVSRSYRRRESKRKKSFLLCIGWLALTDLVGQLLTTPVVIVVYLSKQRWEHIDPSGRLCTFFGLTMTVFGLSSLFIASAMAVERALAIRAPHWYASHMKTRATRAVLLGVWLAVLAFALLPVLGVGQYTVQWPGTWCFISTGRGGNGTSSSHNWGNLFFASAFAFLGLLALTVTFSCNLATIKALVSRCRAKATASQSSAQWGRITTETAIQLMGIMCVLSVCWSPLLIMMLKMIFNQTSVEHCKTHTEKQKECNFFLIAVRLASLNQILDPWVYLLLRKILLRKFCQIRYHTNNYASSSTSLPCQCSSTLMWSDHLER
The description is as above. The protocol:
as §3

Another data set has as its target T5, Human EP2 (Homo sapiens, UniProt P43116).
T5 construct: expressed in transfected cells; host or cells: COS-7
Described as above. Here is the method: as §1, with “As a labeled ligand, tritium-labeled PGE2 was used for EPs; tritium-labeled iloprost, for IP.” left out, “method.” for “method. As a reference control, PGE2 was used for EPs; beraprost sodium (BPS), for IP.”

A further data set has as its target T6, Mouse EP4 (Mus musculus, UniProt P32240).
T6 construct: expressed in transfected cells; host or cells: COS-7
The data set is described as above. The protocol: as §1, with “As a labeled ligand, tritium-labeled PGE2 was used for EPs; tritium-labeled iloprost, for IP.” left out, “method.” for “method. As a reference control, PGE2 was used for EPs; beraprost sodium (BPS), for IP.”

Data set [5] relates to Human Platelet Aggregation. As to the kind of experiment: Inhibitory effect on ADP-induced platelet aggregation in platelet-rich plasma. It is filed as cell-based. The note with it: ADP 10 µmol/L, geometric mean of three volunteers. Here is the method:
The inhibitory effect of compounds F and J, and carboxylate forms thereof on platelet aggregation was evaluated. The carboxylate forms were prepared by separating and purifying the compound synthesized in Example 15 with a column. Blood was drawn from 3 healthy volunteers using sodium citrate as an anticoagulant, and platelet-rich plasma was prepared. The platelet-rich plasma was treated with physiological saline or test compounds and, 2 min later, platelet aggregation was induced with adenosine diphosphate (ADP, final concentration 10 µmol/L) and recorded with a platelet aggregation measurement apparatus (nephelometry).

The test system of data set [6] is blood pressure and heart rate. As to the kind of experiment: Effect on blood pressure and heart rate in mice. It is filed as in vivo, ICR mice. To be noted: intravenous 0.01 mg/5 mL/kg, isoflurane anesthesia. Here is the method:
Male ICR mice (5 weeks old, Japan SLC) were purchased, acclimated for 6 days and used for the test. The animals were treated and measured under isoflurane inhalation anesthesia (anesthesia introduced at 2.5%, maintained at 1.8-2.1%), while body temperature was kept at 37°C with a Heat Controller (ATC-402, Unique Medical Co., Ltd.). A catheter for administration of test compounds was inserted into the left femoral vein, and another catheter was inserted into the right femoral artery and connected to a pressure transducer to record each parameter of hemodynamics.
Compound F, the carboxylate form of compound F and BPS were intravenously administered at a dose of 0.01 mg/5 mL/kg, and the effect on the mean blood pressure and heart rate was evaluated with computer software for the analysis of hemodynamics (Fluclet, Dainippon Sumitomo Pharma Co., Ltd.). To the control group was intravenously administered a solvent (1.2% ethanol solution) at 5 mL/kg in the same manner. The results are expressed as a ratio of change in each parameter before and after the drug administration. Three to 6 animals were used for each group, and the results were expressed as average ± standard deviation.

Data set [7] concerns dextran sodium sulfate-induced colitis. As to the kind of experiment: Dextran sodium sulfate-induced colitis model in mice (C57BL/6). It is filed as in vivo. To be noted: C57BL/6 mice, DSS, oral 0.3 mg/kg once a day. Here is the method: Female C57BL/6 mice (6 weeks old, Japan SLC) were purchased, acclimated for 1 week and used for the study. Except the normal group, the mice were allowed to freely drink a 3 or 2 w/v% DSS (MP Biochemicals, Lot No. 5653H and 5464H, respectively) solution for 1 week to induce colitis. BPS at a dose of 0.3 mg/kg and compound F at doses of 0.3 and 1 mg/kg were orally administered once a day, daily, from the start day of DSS drinking (day 0) to one day before autopsy (day 9). To the control group was orally administered a solvent (1 vol% ethanol solution) at 10 mL/kg in the same manner. The consistency of the stool was graded from score 0 to 4, with normal (0), partly loose stool (1), loose stool (2) and diarrhea (4). The blood feces was also graded from score 0 to 4, with normal (0), partly blood feces (1), blood feces (2) and blood feces plus proctorrhagia (4). The sum of both grades was defined as the stool score (maximum 8). Furthermore, the length of the large intestine was measured in the same manner as in Example 23. Six to 10 animals were used for each group, and the results are shown in average ± standard deviation.

T3 sequence (P35408 whole entry): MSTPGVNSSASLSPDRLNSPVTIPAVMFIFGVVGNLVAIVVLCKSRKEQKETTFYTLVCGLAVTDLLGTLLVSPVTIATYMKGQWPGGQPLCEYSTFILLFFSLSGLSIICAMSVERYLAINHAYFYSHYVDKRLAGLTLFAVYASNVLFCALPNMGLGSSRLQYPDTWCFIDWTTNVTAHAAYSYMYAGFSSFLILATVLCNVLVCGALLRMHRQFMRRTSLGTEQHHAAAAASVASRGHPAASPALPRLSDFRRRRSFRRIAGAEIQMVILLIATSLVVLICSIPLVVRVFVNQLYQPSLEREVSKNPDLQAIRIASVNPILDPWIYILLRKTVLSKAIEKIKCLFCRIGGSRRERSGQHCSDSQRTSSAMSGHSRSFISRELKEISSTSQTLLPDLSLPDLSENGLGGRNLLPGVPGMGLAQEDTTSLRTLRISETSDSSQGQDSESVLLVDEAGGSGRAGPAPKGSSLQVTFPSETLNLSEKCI
T2 sequence (P43119 whole entry): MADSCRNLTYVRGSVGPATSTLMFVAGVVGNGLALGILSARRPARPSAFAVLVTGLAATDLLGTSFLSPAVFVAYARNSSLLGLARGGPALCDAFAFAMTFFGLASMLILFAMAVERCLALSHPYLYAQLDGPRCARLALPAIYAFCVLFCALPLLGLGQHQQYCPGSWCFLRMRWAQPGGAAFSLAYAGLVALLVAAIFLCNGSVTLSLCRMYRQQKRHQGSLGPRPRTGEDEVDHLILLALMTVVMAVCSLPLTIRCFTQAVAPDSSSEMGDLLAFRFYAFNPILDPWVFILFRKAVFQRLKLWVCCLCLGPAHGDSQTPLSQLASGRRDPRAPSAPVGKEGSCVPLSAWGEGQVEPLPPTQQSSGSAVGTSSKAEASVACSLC
T5 sequence (P43116 whole entry): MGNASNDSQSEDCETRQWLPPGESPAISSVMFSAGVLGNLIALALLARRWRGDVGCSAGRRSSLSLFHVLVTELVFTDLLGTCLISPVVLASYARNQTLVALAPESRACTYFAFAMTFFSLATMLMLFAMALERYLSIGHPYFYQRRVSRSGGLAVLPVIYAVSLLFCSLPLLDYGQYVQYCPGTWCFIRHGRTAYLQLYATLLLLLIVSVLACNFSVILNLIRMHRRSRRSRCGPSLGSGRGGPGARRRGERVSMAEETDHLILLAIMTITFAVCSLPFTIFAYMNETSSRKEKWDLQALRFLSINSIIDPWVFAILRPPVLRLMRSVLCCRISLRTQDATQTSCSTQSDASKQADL
T6 sequence (P32240 whole entry): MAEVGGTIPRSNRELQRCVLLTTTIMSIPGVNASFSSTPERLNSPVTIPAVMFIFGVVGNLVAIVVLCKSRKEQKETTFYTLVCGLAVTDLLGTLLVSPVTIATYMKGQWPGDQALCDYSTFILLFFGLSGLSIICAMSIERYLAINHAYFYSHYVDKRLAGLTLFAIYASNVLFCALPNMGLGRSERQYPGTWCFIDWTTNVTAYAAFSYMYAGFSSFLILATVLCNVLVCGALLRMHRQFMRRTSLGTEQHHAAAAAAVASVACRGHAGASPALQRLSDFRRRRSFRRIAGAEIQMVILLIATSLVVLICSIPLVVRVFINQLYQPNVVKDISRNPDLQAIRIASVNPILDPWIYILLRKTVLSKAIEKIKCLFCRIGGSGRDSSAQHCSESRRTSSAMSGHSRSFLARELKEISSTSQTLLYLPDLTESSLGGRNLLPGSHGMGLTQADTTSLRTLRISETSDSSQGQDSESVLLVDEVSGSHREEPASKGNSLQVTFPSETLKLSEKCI

Compound `CCCCC[C@H](O)/C=C/[C@H]1[C@H](O)CC(=O)[C@@H]1C/C=C\CCCC(=O)O` [PGE2, reference compound] returned a Ki at Human EP1 of 2.9 nM. The same compound yielded an IC50 with IL-2 of 0.062 nM.
In the case of `Cc1cccc([C@H](C)[C@H](O)/C=C/[C@@H]2[C@@H]3[C@H](C[C@H]2O)O/C(=C\CCCc2nnn[nH]2)C3(F)F)c1` [Compound J, 4-[(Z)-(1S,5R,6R,7R)-6-[(1E,3R,4S)-3-hydroxy-4-(m-tolyl)-1-pentenyl]-7-hydroxy-2-oxa-4,4-difluoro-bicyclo[3.3.0]octan-3-ylidene]-1-(tetrazol-5-yl)butane], the half-life is 1.28 ± 0.317 h in data set [1] (iv, 50 ug/kg) and 1 to 2 h in data set [1] (rats, intravenous, summary of Table 3). The Ki on Human IP came out at 3400 nM; on Human EP1, 4600 nM; on Human EP4 [4], 83 nM; at Human EP3, 1500 nM; on Human EP2 it was 5400 nM; on Mouse EP4 it was 590 nM. The Residual ratio in data set [2] is 90.1±6.9%. The same compound showed a half-maximal effective concentration (EC50) at Human EP4 [3] of 440 nM. Besides, the IC50 in the data set on IL-2 came to 64 nM; in the data set with TNF-α, 89.5 nM; in the data set on IP-10, 102 nM; in data set [5], 2720 nM. Further, the “affinity for binding to human EP4 higher than that to human IP” value on Human EP4 [4] (ratio of Ki values) is 40 fold.
For the compound `CC#CCC(C)[C@H](O)/C=C/[C@@H]1[C@H]2c3cccc(CCCC(=O)O)c3O[C@H]2C[C@H]1O` (mixture of isomers) [BPS, beraprost sodium, reference compound], the inhibition constant Ki on Human IP worked out at 160 nM; at Human EP1 it was 942 nM; at Human EP4 [4] it was 6150 nM; at Human EP3, 946 nM; at Human EP2, 4990 nM. The “effect on heart rate” value in data set [6] is “on the increase and remained high even after 10 min”. Besides, the “maximum decrease ratio of mean blood pressure” value in data set [6] was 38%. For the same compound, on Human EP4 [3], the concentration for a half-maximal effect (EC50) was more than 1000 nM. Moreover, in data set [7], the “effect on stool score” value is “not effective, but rather showed a tendency toward aggravation of the stool score”. Further, the “effect on the shortening of the large intestine” value in data set [7] is listed as “no effect on the shortening of the large intestine”. This compound showed an IC50 in [5] of 36 nM.
